Values of other authors as cited in US7052717B2, “Storage stable thyroxine active drug formulations and methods for their production” (Mylan Pharmaceuticals Inc., priority 2001, dated 2006).

Details: high humidity, light or high temperature; Won, Pharm. Res. 9(1):131-137, 1992

SMILES: N[C@@H](Cc1cc(I)c(Oc2cc(I)c(O)c(I)c2)c(I)c1)C(=O)O [Levothyroxine sodium, levothyroxine sodium]
- stability of drug substance: quite unstable, hygroscopic and degrades rapidly when subjected to high humidity, light or high temperature
